Experimental data taken from US8937068B2, “Pyridopyrazine derivatives and their use” (Zentaris GmbH, priority 2005, dated 2015).

Tests used:
[1] = molecular target: PI3Kalpha (Homo sapiens (Human), UniProt P42336); assay: Cell-free kinase assay (ALPHA technology), PI3Kalpha; type: biochemical; details: 100 μM ATP
How it was run: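 Recombinant human GST- or His-tagged kinases were assayed for 1 h with ALPHA bead detection read after overnight standing. For PI3Kalpha: 1 ng enzyme, 100 μM ATP, 20 μM PIP2 in Hepes pH 7.4, detected by GST:Grp1/biotin-PIP3 competition. The p38alpha and Jnk assays followed the MAPK format (10 μM ATP, biotin-MBP, anti-phospho-MBP); IC50 from %-inhibition.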

[2] = tested on: Erk → pRsk; assay: Cellular substrate phosphorylation (Western Blotting), Erk substrate pRsk; type: cell-based; details: 50 μM, 5 h
Description: (§1) This method can be used to predict whether the kinase modulator under study also achieves the desired effect in a cellular context, i.e. in this case, a substrate protein downstream of the target kinase is investigated for its phosphorylation status. For this purpose, the cells incubated with substance are lysed and the total protein separated on a reducing polyacrylamide gel. The proteins are then transferred to a PVDF membrane by means of Western Blotting and the substrate bands sought are made visible with specific antibodies and a suitable detection method. The substrate proteins downstream of the target kinases are detected simultaneously with a respectively special anti-phospho-antibody and at the same time a total antibody which recognizes the substrate total protein. This simultaneous measurement can be made using the duplex technology of the ODYSSEY imagers (LiCOR). The intensity of the total substrate bands is used for normalising or quantifying the phosphorylation inhibition or activation.
(§2) Suitable tumour cell lines (e.g. BxPC3, Hct116 or MDA MB468) were injected into six-well microtitre plates in a defined cell number (e.g. 350 000 cells/well for BxPC3 and Hct116) in the respective standard complete medium and then incubated overnight at 37° C., 5% CO2 and 95% air humidity. The cells were then incubated for a further 24 h under serum-reduced conditions i.e. in the respective medium but with only 0.25% serum. The test substances were prepared as stock solutions (10 mM) in DMSO and incubated with the cells in final concentrations of 5, 15.8 and 50 μM for 5 h. This was followed by cell lysis in 25 mM Tris, 150 mM NaCl, 10 mM Na-pyrophosphate, 2 mM EGTA, 25 mM β-glycerophosphate, 25 mM NaF, 10% glycerine, 0.75% NP-40, 100 μM NaVO4 buffer. Following protein quantification by means of BCA (bicinchonic acid protein assay kit, Sigma) Assay, protein quantities of about 20 μg per track were separated on a Lämmli polyacrylamide gel and then transferred to a PVDF membrane (Millipore) by means of Semi-Dry Western-Blotting at 0.8 mA/cm^2 for 1 h. This was followed by pre-hybridisation of the membrane for 1 hour in I-block reagent (Applied Biosystems) and incubation overnight with the specific antibodies. To determine the Erk and PI3K inhibition, the respectively downstream substrates Rsk1 were detected with the total antibody (Rsk #sc-231g C-21, Santa Cruz) and the phospho-antibody (Phospho-p90RSK (S380) #9341, NEB Cell Signalling) and Akt was detected with the total antibody (Akt1 #sc-1618 C-20, Santa Cruz) and the phospho-antibody (Phospho-Akt (Ser 473) #9271, NEB Cell Signaling). After washing the membrane, secondary antibody incubation was carried out with anti-rabbit IR Dye 800 (#611-732-127, Rockland) for the phospho-antibody and anti-goat Alexa Fluor 680 (#A-21081, Molecular Probes) for the total protein-antibody. After incubating for 30 min at room temperature in the dark, the hybridisation of the detection antibody on the membrane was detected by scanning in the ODYSSEY imager (LiCOR).
(§3) The reduction of the fluorescence intensity of the phospho-substrate bands (pRsk and pAkt) is given in the table below as % inhibition and relates to the following formula:
(§4) The band intensity (fluorescence intensity) of the respective non-inhibited (without substance) phospho-substrates was used as 100% control.

[3] = tested on: PI3K → pAkt; assay: Cellular substrate phosphorylation (Western Blotting), PI3K substrate pAkt; type: cell-based; details: 50 μM, 5 h
Description: as §1, §2, §3, §4

Chain of PI3Kalpha (P42336 whole entry): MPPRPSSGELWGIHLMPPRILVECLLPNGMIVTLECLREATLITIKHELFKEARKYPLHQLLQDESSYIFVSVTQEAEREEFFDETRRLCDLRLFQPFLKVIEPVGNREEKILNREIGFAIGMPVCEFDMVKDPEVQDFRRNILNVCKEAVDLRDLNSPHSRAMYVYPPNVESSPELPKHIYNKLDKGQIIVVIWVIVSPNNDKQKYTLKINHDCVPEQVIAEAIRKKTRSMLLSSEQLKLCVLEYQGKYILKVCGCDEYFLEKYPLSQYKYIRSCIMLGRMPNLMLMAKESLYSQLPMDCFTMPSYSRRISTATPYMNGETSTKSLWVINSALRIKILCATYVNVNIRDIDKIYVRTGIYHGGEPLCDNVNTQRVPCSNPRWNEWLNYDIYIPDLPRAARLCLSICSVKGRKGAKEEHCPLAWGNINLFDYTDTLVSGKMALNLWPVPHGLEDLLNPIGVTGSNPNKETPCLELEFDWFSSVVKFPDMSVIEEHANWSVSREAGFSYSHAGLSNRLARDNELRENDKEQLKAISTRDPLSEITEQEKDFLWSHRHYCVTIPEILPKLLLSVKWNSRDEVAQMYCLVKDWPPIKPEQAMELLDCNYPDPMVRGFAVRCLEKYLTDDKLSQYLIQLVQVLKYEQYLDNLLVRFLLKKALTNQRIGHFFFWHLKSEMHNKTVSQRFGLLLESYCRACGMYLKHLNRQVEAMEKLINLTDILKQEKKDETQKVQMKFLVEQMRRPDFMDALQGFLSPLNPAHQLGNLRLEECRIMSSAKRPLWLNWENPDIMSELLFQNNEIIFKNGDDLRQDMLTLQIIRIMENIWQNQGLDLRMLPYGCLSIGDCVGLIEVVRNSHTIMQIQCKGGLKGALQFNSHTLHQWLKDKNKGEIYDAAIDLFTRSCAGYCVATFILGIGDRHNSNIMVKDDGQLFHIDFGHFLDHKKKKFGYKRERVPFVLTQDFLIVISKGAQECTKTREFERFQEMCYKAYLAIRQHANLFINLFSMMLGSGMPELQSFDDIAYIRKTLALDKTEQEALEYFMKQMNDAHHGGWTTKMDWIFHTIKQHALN
Chain of PI3Kalpha (P27986 whole entry partner): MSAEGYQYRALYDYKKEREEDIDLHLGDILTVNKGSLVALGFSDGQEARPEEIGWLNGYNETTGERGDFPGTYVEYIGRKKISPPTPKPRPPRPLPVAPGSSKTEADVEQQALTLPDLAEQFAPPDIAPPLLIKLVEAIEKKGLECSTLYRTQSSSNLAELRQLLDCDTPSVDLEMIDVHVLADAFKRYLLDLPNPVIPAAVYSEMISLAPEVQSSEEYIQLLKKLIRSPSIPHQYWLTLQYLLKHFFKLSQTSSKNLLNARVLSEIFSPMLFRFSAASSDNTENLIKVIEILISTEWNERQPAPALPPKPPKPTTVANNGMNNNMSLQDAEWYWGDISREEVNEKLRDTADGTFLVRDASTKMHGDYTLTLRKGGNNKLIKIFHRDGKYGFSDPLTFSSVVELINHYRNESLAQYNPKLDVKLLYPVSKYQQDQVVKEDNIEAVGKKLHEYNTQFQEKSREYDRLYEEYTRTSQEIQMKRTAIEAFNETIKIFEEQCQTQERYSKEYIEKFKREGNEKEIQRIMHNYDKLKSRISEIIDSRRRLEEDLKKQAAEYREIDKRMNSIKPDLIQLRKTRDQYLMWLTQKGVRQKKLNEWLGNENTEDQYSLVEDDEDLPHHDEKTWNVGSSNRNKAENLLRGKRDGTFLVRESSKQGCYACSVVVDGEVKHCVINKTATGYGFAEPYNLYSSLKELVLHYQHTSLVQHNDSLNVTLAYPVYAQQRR

CCNC(=O)Nc1ccc2ncc(-c3ccc(O)c(OC)c3)nc2n1 [Compound 124, 1-Ethyl-3-[3-(4-hydroxy-3-methoxy-phenyl)-pyrido[2,3-b]pyrazin-6-yl]-urea]
IC50 [1]: 0.49 µM
inhibition at 50 µM [2]: 90%
inhibition at 50 µM [3]: 90%

O=C(NCCCCO)Nc1ccc2ncc(-c3ccccc3)nc2n1 [Compound 146, 1-(4-Hydroxy-butyl)-3-(3-phenyl-pyrido[2,3-b]pyrazin-6-yl)-urea]
IC50 [1]: 1.1 µM
inhibition at 50 µM [2]: 100%
inhibition at 50 µM [3]: 10%

CCNC(=O)Nc1ccc2ncc(Nc3ccc(C)cc3)nc2n1 [Compound 150, 1-Ethyl-3-(3-p-tolylamino-pyrido[2,3-b]pyrazin-6-yl)-urea]
IC50 [1]: 0.129 µM
inhibition at 50 µM [2]: 0%
inhibition at 50 µM [3]: 90%

C=CCNC(=S)Nc1ccc2ncc(-c3ccc(O)cc3)nc2n1 [Compound 30, 1-allyl-3-[3-(4-hydroxy-phenyl)-pyrido[2,3-b]pyrazin-6-yl]-thiourea]
IC50 [1]: 0.37 µM
inhibition at 50 µM [2]: 90%
inhibition at 50 µM [3]: 100%

CCNC(=O)Nc1ccc2ncc(-c3ccc(O)c(OC)c3)nc2n1.Cc1ccc(S(=O)(=O)O)cc1 [Compound 183, 1-Ethyl-3-[3-(4-hydroxy-3-methoxy-phenyl)-pyrido[2,3-b]pyrazin-6-yl]-urea p-Toluolsulfonate]
IC50 [1]: 2.8 µM
Inhibition of cellular substrate phosphorylation Erk → pRsk [2]: 80%
Inhibition of cellular substrate phosphorylation PI3K → pAkt [3]: 80%

CCNC(=O)Nc1ccc2ncc(-c3cnn(C)c3)nc2n1 [Compound 173, 1-Ethyl-3-[3-(1-methyl-1H-pyrazol-4-yl)-pyrido[2,3-b]pyrazin-6-yl]-urea]
IC50 [1]: 2.4 µM
inhibition at 50 µM [2]: 90%
inhibition at 50 µM [3]: 50%
